Reference: US20230304058A1, “NOVEL 5'CAP ANALOG HAVING CAP2 STRUCTURE AND PREPARATION METHOD THEREFOR” (Shenzhen Rhegen Biotechnology Co., Ltd., priority 2020, published 2023)

Key:
[1] = test system: TLR3, TLR7, TLR8 and RIG-1; experiment: Intracellular immunogenicity of capped mRNA by RNA immunoprecipitation and quantitative PCR; format: cell-based; details: relative to ARCA; Human-derived PBMC cells, 5 μg mRNA, Lipofectamine 2000, 24 h
Method: Experimental methods: the intracellular immunoproteins TLR3, TLR7, TLR8 and RIG-1 were immunoprecipitated together with their bound RNAs by RNA immunoprecipitation, and finally these mRNAs were identified by real-time quantitative PCR, and their relative abundance was proportional to their immunogenicity.
The cells were collected by trypsin digestion 24 h later and resuspended in PBS, centrifuged, and collected.
Fixative was added to the cells, and after 15 minutes glycine was added for termination of fixation, followed by centrifugation to collect the cells. Cells were resuspended by adding lysate, incubated on ice at 4° C. for 30 min, centrifuged at 2400 g for 10 min, and the supernatant was collected.
TLR3, TLR7, TLR8 and RIG-1 antibodies (2-10 μg) were added to the supernatant (6-10 mg) followed by gentle incubation at 4° C. for 2 hours. Protein AIG beads (40 μL) were then added to them and incubated gently for 1 h at 4° C.
Centrifuge at 2500 rpm for 30 seconds with precipitated magnetic beads and remove the supernatant. Resuspend the beads in 500 μL of RIP buffer. Wash in RIP buffer a total of three times, followed by one wash in PBS.
Resuspend magnetic beads in TRIzol RNA Extraction Reagent (1 mL) and isolate co-precipitated RNA, and then elute RNA using nuclease-free water (20 μL).
6. Reverse transcribe (RT) the RNA into cDNA and design primers according to the mRNA sequence for quantitative PCR analysis. mRNA immunogenicity is proportional to the number of mRNA copies precipitated by magnetic beads.

[2] = biological target: T7 Enzyme Mix (Escherichia phage T7, UniProt P00573); experiment: In vitro transcription mRNA synthesis with cap analog, reaction yield; format: biochemical; details: per ml transcription reaction system; 37° C. for 6 h; LiCl purification
Sequence of T7 Enzyme Mix (P00573 whole entry): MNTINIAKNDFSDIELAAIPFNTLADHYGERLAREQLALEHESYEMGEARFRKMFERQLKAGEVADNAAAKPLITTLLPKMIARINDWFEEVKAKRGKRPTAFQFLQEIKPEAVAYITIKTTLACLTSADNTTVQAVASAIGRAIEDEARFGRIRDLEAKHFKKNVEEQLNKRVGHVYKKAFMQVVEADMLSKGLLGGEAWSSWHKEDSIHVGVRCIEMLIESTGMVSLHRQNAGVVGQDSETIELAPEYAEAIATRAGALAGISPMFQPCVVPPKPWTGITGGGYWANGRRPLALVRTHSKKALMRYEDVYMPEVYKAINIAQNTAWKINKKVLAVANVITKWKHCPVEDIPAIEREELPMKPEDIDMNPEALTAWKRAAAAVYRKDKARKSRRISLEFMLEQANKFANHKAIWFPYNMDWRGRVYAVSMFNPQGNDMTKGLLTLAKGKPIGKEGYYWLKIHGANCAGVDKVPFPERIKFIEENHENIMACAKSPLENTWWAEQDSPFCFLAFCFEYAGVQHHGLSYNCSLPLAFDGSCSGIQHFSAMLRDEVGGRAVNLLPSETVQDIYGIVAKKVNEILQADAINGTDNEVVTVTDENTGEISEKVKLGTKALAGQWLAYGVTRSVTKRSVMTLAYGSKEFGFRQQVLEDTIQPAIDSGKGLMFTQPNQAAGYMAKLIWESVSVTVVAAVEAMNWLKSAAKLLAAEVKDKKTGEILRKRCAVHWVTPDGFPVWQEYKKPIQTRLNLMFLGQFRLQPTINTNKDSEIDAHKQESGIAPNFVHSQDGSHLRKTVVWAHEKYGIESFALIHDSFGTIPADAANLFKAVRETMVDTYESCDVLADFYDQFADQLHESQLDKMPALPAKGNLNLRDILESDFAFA
Method: 1. Before synthesizing mRNA, linearize the plasmid with Notl, digested at […] overnight;
2. Extract with DNA template;
React at 37° C. for 6 h. Digest with TURBO DNase for 15 min.
4. Purify the transcription products using LiCl solution and calculate the reaction yields.

[3] = test system: mRNA; experiment: mRNA capping rate by RNase H cleavage and LC-MS; format: biochemical; details: ratio of capped and uncapped mRNA
Excerpt: The mRNA molecules with different Cap structures obtained in Example 1 were subjected to enzymatic cleavage, and the ratio of capped and uncapped mRNA molecules could be determined in a liquid chromatography-mass spectrometry analysis experiment.
1. Concentrate the beads using a magnet, aspirate the supernatant storage solution, and add an equal volume of 0.1 M NaOH +0.05 M NaCl;
2. Aspirate the supernatant and resuspend the beads with an equal volume of 0.1 M NaCl, keep the concentration constant;
3. Anneal mRNA and cleavage tags, configure the following reaction system;
Gradient annealing: 95° C. 5 min
4. Combining cleavage tags with beads • Beads were centrifuged at 15,000 g for 5 min, and the supernatant was removed, then 120 μl of annealed mRNA and tags were added and incubated for 30 min at room temperature, during which time they were gently shaken to ensure adequate binding.
5. Enzyme cleavage using RNase H; • Add 10 μl RNase H and incubate at 37° C. for 3 h. Precipitate the beads with magnet and discard the supernatant. • Add 100 μl washing buffer, mix thoroughly, magnet precipitate for 2 min, and discard the supernatant. Repeat 3 times. • Wash with DI water for 3 times.
6. Hydrolysis with RppH; • Use 10 units RppH in nebuffer 2 to hydrolyze at room temperature for 1 h.
DI water was aspirated, 100 μl of 75% ethanol preheated to 80° C. was added, incubat for 3 min, and magnet precipitat for 3 min. The supernatant was taken, followed by evaporating, and centrifuge for 45 min to a volume of 10 μl. Finally, the sample was resuspended in 50 μl of […] EDTA/1% MeOH and left for LC-MS analysis.
9. the mRNA capping rate of different Cap analogs synthesized was analyzed with LC-MS.

Row | SMILES | Intracellular immunogenicity of mRNA when using different Cap structures [1] | Mass of final product obtained from 1 ml mRNA synthesis reaction system [2] | mRNA capping rates when using different Cap structures [3]
1 | CO[C@@H]1[C@H](O)[C@@H](COP(=O)(O)O[C@H]2[C@@H](OC)[C@H](n3ccc(N)nc3=O)O[C@@H]2COP(=O)(O)OP(=O)(O)OP(=O)([O-])OC[C@H]2O[C@@H](n3c[n+](C)c4c(=O)[nH]c(N)nc43)[C@H](O)[C@@H]2O)O[C@H]1n1ccc(=O)[nH]c1=O [Cap analog 15, m7G(5′)ppp(5′)(2′OMeC)p(2′OMeU)] | 0.34 | 4.6 mg | 94.83%
2 | CO[C@@H]1[C@H](O)[C@@H](COP(=O)(O)O[C@H]2[C@@H](OC)[C@H](n3ccc(=O)[nH]c3=O)O[C@@H]2COP(=O)(O)OP(=O)(O)OP(=O)([O-])OC[C@H]2O[C@@H](n3c[n+](C)c4c(=O)[nH]c(N)nc43)[C@H](O)[C@@H]2O)O[C@H]1n1ccc(=O)[nH]c1=O [Cap analog 16, m7G(5′)ppp(5′)(2′OMeU)p(2′OMeU)] | 0.48 | 4.2 mg | 94.84%
3 | CO[C@@H]1[C@H](O)[C@@H](COP(=O)(O)O[C@H]2[C@@H](OC)[C@H](n3cnc4c(N)ncnc43)O[C@@H]2COP(=O)(O)OP(=O)(O)OP(=O)([O-])OC[C@H]2O[C@@H](n3c[n+](C)c4c(=O)[nH]c(N)nc43)[C@H](O)[C@@H]2OC)O[C@H]1n1cnc2c(=O)[nH]c(N)nc21 [Cap analog 17, 3-O-Me-m7G(5′)ppp(5′)(2′OMeA)p(2′OMeG)] | 0.44 | 4.7 mg | 94.91%
4 | CO[C@@H]1[C@H](O)[C@@H](COP(=O)(O)O[C@H]2[C@@H](OC)[C@H](n3cnc4c(=O)[nH]c(N)nc43)O[C@@H]2COP(=O)(O)OP(=O)(O)OP(=O)([O-])OC[C@H]2O[C@@H](n3c[n+](C)c4c(=O)[nH]c(N)nc43)[C@H](O)[C@@H]2OC)O[C@H]1n1cnc2c(=O)[nH]c(N)nc21 [Cap analog 18, 3-O-Me-m7G(5′)ppp(5′)(2′OMeG)p(2′OMeG)] | 0.31 | 4.1 mg | 94.98%
5 | CO[C@@H]1[C@H](OP(=O)(O)OC[C@H]2O[C@@H](n3cnc4c(=O)[nH]c(N)nc43)[C@H](OC)[C@@H]2O)[C@@H](COP(=O)(O)OP(=O)(O)OP(=O)([O-])OC[C@H]2O[C@@H](n3c[n+](C)c4c(=O)[nH]c(N)nc43)[C@H](O)[C@@H]2OC)O[C@H]1n1ccc(N)nc1=O [Cap analog 19, 3-O-Me-m7G(5′)ppp(5′)(2′OMeC)p(2′OMeG)] | 0.26 | 4.4 mg | 95%
6 | CO[C@@H]1[C@H](OP(=O)(O)OC[C@H]2O[C@@H](n3cnc4c(=O)[nH]c(N)nc43)[C@H](OC)[C@@H]2O)[C@@H](COP(=O)(O)OP(=O)(O)OP(=O)([O-])OC[C@H]2O[C@@H](n3c[n+](C)c4c(=O)[nH]c(N)nc43)[C@H](O)[C@@H]2OC)O[C@H]1n1ccc(=O)[nH]c1=O [Cap analog 20, 3-O-Me-m7G(5′)ppp(5′)(2′OMeU)p(2′OMeG)] | 0.51 | 4.6 mg | 94.42%
7 | CO[C@@H]1[C@H](O)[C@@H](COP(=O)(O)O[C@H]2[C@@H](OC)[C@H](n3cnc4c(N)ncnc43)O[C@@H]2COP(=O)(O)OP(=O)(O)OP(=O)([O-])OC[C@H]2O[C@@H](n3c[n+](C)c4c(=O)[nH]c(N)nc43)[C@H](O)[C@@H]2OC)O[C@H]1n1cnc2c(N)ncnc21 [Cap analog 21, 3-O-Me-m7G(5′)ppp(5′)(2′OMeA)p(2′OMeA)] | 0.15 | 4.8 mg | 94.55%
8 | CO[C@@H]1[C@H](O)[C@@H](COP(=O)(O)O[C@H]2[C@@H](OC)[C@H](n3cnc4c(=O)[nH]c(N)nc43)O[C@@H]2COP(=O)(O)OP(=O)(O)OP(=O)([O-])OC[C@H]2O[C@@H](n3c[n+](C)c4c(=O)[nH]c(N)nc43)[C@H](O)[C@@H]2OC)O[C@H]1n1cnc2c(N)ncnc21 [Cap analog 22, 3-O-Me-m7G(5′)ppp(5′)(2′OMeG)p(2′OMeA)] | 0.29 | 4.6 mg | 94.83%
9 | CO[C@@H]1[C@H](OP(=O)(O)OC[C@H]2O[C@@H](n3cnc4c(N)ncnc43)[C@H](OC)[C@@H]2O)[C@@H](COP(=O)(O)OP(=O)(O)OP(=O)([O-])OC[C@H]2O[C@@H](n3c[n+](C)c4c(=O)[nH]c(N)nc43)[C@H](O)[C@@H]2OC)O[C@H]1n1ccc(N)nc1=O [Cap analog 23, 3-O-Me-m7G(5′)ppp(5′)(2′OMeC)p(2′OMeA)] | 0.41 | 4.5 mg | 94.65%
10 | CO[C@@H]1[C@H](OP(=O)(O)OC[C@H]2O[C@@H](n3cnc4c(N)ncnc43)[C@H](OC)[C@@H]2O)[C@@H](COP(=O)(O)OP(=O)(O)OP(=O)([O-])OC[C@H]2O[C@@H](n3c[n+](C)c4c(=O)[nH]c(N)nc43)[C@H](O)[C@@H]2OC)O[C@H]1n1ccc(=O)[nH]c1=O [Cap analog 24, 3-O-Me-m7G(5′)ppp(5′)(2′OMeU)p(2′OMeA)] | 0.48 | 4.7 mg | 94.72%
11 | CO[C@@H]1[C@H](O)[C@@H](COP(=O)(O)O[C@H]2[C@@H](OC)[C@H](n3cnc4c(N)ncnc43)O[C@@H]2COP(=O)(O)OP(=O)(O)OP(=O)([O-])OC[C@H]2O[C@@H](n3c[n+](C)c4c(=O)[nH]c(N)nc43)[C@H](O)[C@@H]2OC)O[C@H]1n1ccc(N)nc1=O [Cap analog 25, 3-O-Me-m7G(5′)ppp(5′)(2′OMeA)p(2′OMeC)] | 0.29 | 4.1 mg | 94.8%
12 | CO[C@@H]1[C@H](O)[C@@H](COP(=O)(O)O[C@H]2[C@@H](OC)[C@H](n3cnc4c(=O)[nH]c(N)nc43)O[C@@H]2COP(=O)(O)OP(=O)(O)OP(=O)([O-])OC[C@H]2O[C@@H](n3c[n+](C)c4c(=O)[nH]c(N)nc43)[C@H](O)[C@@H]2OC)O[C@H]1n1ccc(N)nc1=O [Cap analog 26, 3-O-Me-m7G(5′)ppp(5′)(2′OMeG)p(2′OMeC)] | 0.49 | 4.6 mg | 94.97%
13 | CO[C@@H]1[C@H](O)[C@@H](COP(=O)(O)O[C@H]2[C@@H](OC)[C@H](n3ccc(N)nc3=O)O[C@@H]2COP(=O)(O)OP(=O)(O)OP(=O)([O-])OC[C@H]2O[C@@H](n3c[n+](C)c4c(=O)[nH]c(N)nc43)[C@H](O)[C@@H]2OC)O[C@H]1n1ccc(N)nc1=O [Cap analog 27, 3-O-Me-m7G(5′)ppp(5′)(2′OMeC)p(2′OMeC)] | 0.09 | 4.7 mg | 94.88%
14 | CO[C@@H]1[C@H](O)[C@@H](COP(=O)(O)O[C@H]2[C@@H](OC)[C@H](n3ccc(=O)[nH]c3=O)O[C@@H]2COP(=O)(O)OP(=O)(O)OP(=O)([O-])OC[C@H]2O[C@@H](n3c[n+](C)c4c(=O)[nH]c(N)nc43)[C@H](O)[C@@H]2OC)O[C@H]1n1ccc(N)nc1=O [Cap analog 28, 3-O-Me-m7G(5′)ppp(5′)(2′OMeU)p(2′OMeC)] | 0.52 | 4.8 mg | 94.62%
